Converted amounts (≈) assume the structure as drawn. “And” between values parts separate entries of the source, which are not always exact repeats. Equal values may be shown once. Read-outs that look alike come from different tables or passages of the source.
Tests used:
[1] = system: P. viticola; set-up: species or system Plasmopara viticola
[2] = system: Plasmopara viticola; experiment: Preliminary screening of crude extracts and compounds (Table 3)
[3] = system: Plasmopara viticola; experiment: In vitro zoospore germination and activity, MIC(100%); assay type: cell-based; details: for Minimal inhibitory concentration (MIC(100%)) Plasmopara viticola: zoospore germination and activity, in vitro; for MIC: Plasmopara viticola, read-out: Minimal inhibitory concentration (MIC(100%)) Plasmopara viticola
[4] = system: Phytophthora infestans; assay type: cell-based; details: germination, in vitro
[5] = 0.147% mass/volume, Isopropanol

`C=CC(C)(O)CCC1C(=C)CC(OC(C)=O)C2C(C)(C)CCCC12C` (stereo not drawn) [Compound 2, larixyl acetate] was tested, and the “Efficacy (%)” value ([1]; 0.01% mass/volume, Isopropanol) was 24.5%, the “Efficacy (%)” value ([1]; 0.012% mass/volume, Ethanol) was 69.2% and the “Efficacy (%)” value ([1]; 0.025% mass/volume, Ethanol) was 83.3%. For the same compound, the “Efficacy (%)” value ([1]; 0.05% mass/volume, Ethanol) was 98.4%, the “Efficacy (%)” value ([1]; 0.1% mass/volume, Ethanol) was 99.9% and 99.4% and the “Efficacy (%)” value ([1]; 0.12% mass/volume, Ethanol) was 100.0%. The “Efficacy (%)” value [1, 5] was 99.5%, the Activity ([2]; sample 0.012% mass/volume) was 69.2% and the Activity ([2]; sample 0.12% mass/volume) was 100%. For the same compound, the “Minimal inhibitory concentration (MIC(100%)) Plasmopara viticola” value [3] was 4 ppm and the “Minimal inhibitory concentration (MIC(100%)) Phytophthora infestans” value [4] was 125 ppm.

`COc1cc(C[C@H]2CO[C@H](c3ccc(O)c(OC)c3)[C@H]2CO)ccc1O` [Compound 3, (+)-lariciresinol] was tested, and the Activity ([2]; sample 0.01% mass/volume) was 14.4%, the Activity ([2]; sample 0.1% mass/volume) was 94.1% and the MIC [3] was 250 µg/mL (≈ 694 µM). For the same compound, the “Minimal inhibitory concentration (MIC(100%)) Phytophthora infestans” value [4] was “No activity”.

`COc1cc(C[C@H]2CO[C@H](c3ccc(O)c(OC)c3)[C@H]2COC(C)=O)ccc1O` [Compound 4, (+)-lariciresinol acetate] showed an Activity ([2]; sample 0.008% mass/volume) of 13.1%, an Activity ([2]; sample 0.036% mass/volume) of 78.8% and an Activity ([2]; sample 0.08% mass/volume) of 92.4%. The MIC [3] was 125 µg/mL and the “Minimal inhibitory concentration (MIC(100%)) Phytophthora infestans” value [4] was “No actvity”.

In the case of `C=C[C@@](C)(O)CC[C@H]1C(=C)C[C@H](O)[C@H]2C(C)(C)CCC[C@]12C` [Compound 1, larixol], the “Efficacy (%)” value ([1]; 0.0147% mass/volume, Isopropanol) is reported as 36.3%, the “Efficacy (%)” value ([1]; 0.025% mass/volume, Ethanol) is reported as 91.2% and the “Efficacy (%)” value ([1]; 0.074% mass/volume, Isopropanol) is reported as 100.0%. The “Efficacy (%)” value ([1]; 0.1% mass/volume, Ethanol) was 98.8%, the “Efficacy (%)” value [1, 5] was 99.5% and the Activity ([2]; sample 0.0147% mass/volume) was 36.3%. For the same compound, the Activity ([2]; sample 0.074% mass/volume) was 100%, the Activity ([2]; sample 0.147% mass/volume) was 99.5% and the “Minimal inhibitory concentration (MIC(100%)) Plasmopara viticola” value [3] was 16 ppm. The “Minimal inhibitory concentration (MIC(100%)) Phytophthora infestans” value [4] was 500 ppm.
